Reference: US5830855A, “Lipodepsipeptides as antifungal and fungicidal agents” (priority 1996, dated 1998)
In brackets after ≈: the same amount, converted by molar mass. Numbered stars: 1 amine (or outer) side, 2 acyl side, 3 side chain; on linkers, the order of the positions; unused ones are H or OH. Bridge positions count the residues as written; N and C are the ends. Square brackets hold non-standard residues; d marks the D form. Peptide text beside a SMILES is read from it. * marks the point of attachment. ξ: configuration not given here. ξAsp(3ξ-OH) = NC(C(=O)O)C(O)C(=O)O; X3 = O=C(C(N[*:1])C(O)CCl)[*:2]; X2 = CCCCCCCCCCCC(O)CC(=O)*; Orn = NCCC[CH](N)C(=O)O; hSer = N[CH](CCO)C(=O)O; Dab = NCC[CH](N)C(=O)O; Dhb = C/C=C(\N)C(=O)O

What was measured:
Aspergillus fumigatus [1] = test: Broth microdilution MIC; format: cell-based; conditions: Table 1 (MICs), 16 isolates, 48 hr
Procedure: (§1) Medium: Liquid RPMI 1640 (RPMI) medium with L-glutamine and without sodium bicarbonate (Sigma Chemical Co., R-6504; St. Louis, Mo.) buffered with 0.165M MOPS (34.54 g/liter) was used for in vitro antifungal tests. The medium was adjusted to pH 7.0 with 10M NaOH and filter sterilized.
(§2) Lipodepsipeptide Dilutions: All stock drug solution concentrations were at least 10-fold higher than the highest concentration tested. AmB, ketoconazole, and the test compounds (SR-E, ST-B, and SS-A) were dissolved in sterile distilled water, 0.2N HCl, and 0.001N HCl, respectively. Each stock solution was diluted to 2× the highest concentration of drug tested with RPMI. Two-fold dilutions were made with RPMI medium.
(§3) Preparation of Inoculum Suspensions: On Sabouraud dextose agar (SDA; BBL, Becton and Dickinson and Co., Cockeysville, Md.) all isolates were subcultured at least twice before use to ensure purity and viability. Candida spp. and Saccharomyces cerevisiae were grown for 24 hr at 35° C. Isolates of Cryptococcus neoformans were grown for 48 hr at 35° C. Yeast cells from at least five 1-mm-diameter colonies were suspended in 5 ml of sterile 0.85% saline. The resulting suspension was vortexed for 15 sec. The turbidity of each mixed suspension was measured at 530 nm and adjusted to 1×10^6 to 5×10^6 CFU/ml by the NCCLS spectrophotometric method described by National Committee for Clinical Laboratory Standards. 1992. Reference method for broth dilution antifungal susceptibility testing of yeasts; proposed standard, NCCLS document M27-P (ISBN 1-56238-186-5). NCCLS, Villanova. The final transmission of each yeast suspension ranged from 85-87%.
(§4) Aspergillus fumigatus and Mucor spp. were grown for 1 wk at 35° C. The dermatophytes, Microsporum spp. and Trichophyton spp., were grown for two wk at 30° C. Fungal spores were washed from the plates of all good spore formers (A. fumigatus, Mucor spp., Microsporum canis and Trichophyton spp.) by placing 5 ml of 0.85% saline with 0.2% Tween 80 on the plates and mixing with an inoculating loop. The spore/mycelium suspension was drawn off with a pipette and allowed to settle for at least 5 min. For the poor spore-forming Microsporum audouinii, the procedure was the same except the spore/mycelial suspension was homogenized with a ground glass tissue homogenizer and then allowed to settle for at least 5 min. A small amount of the supernatant was transferred to 5 ml of sterile saline and vortexed. The stock suspensions of all filamentous fungi were measured at 530 nm and adjusted to 85-87% transmission. The concentration (1×10^6 to 5×10^6 CFU/ml) was determined by hemacytometer count or plate count on SDA. All stock suspensions were diluted 1000-fold with RPMI, or 2× the final desired test inocula. The 2× inoculum was diluted 1:1 when the wells were inoculated, and the desired inoculum size was achieved.
(§5) Broth Microdilution Test: Broth microdilution tests were performed using sterile, disposable, multiwell microdilution plates (96 round U-bottom wells) (Falcon 3077; Becton and Dickinson Labware, Lincoln Park, N.J.). The drugs (2× concentrations) were dispensed into the wells of rows number 1 to 10 of the microdilution plates in 100 μl volumes from highest drug concentration to lowest drug concentration. Each well was inoculated with 100 μl of the corresponding 2× concentrated fungal suspension. The wells of row 11 contained the inoculum with drug-free media as a positive growth control and the wells of row 12 contained uninoculated-drug-free medium as a sterility control.
(§6) Incubation and Scoring of MIC: All cultures were incubated without shaking at the temperature used during subculture. Incubation times were 48 hr for Candida spp., S. cerevisiae, A. fumigatus, and Mucor spp; 72 hr for C. neoformans; and 7 days for Microsporum and Trichophyton spp. […]

Candida albicans [2] = test: Broth microdilution MIC; format: cell-based; conditions: for MIC range: Table 1 (MICs), Candida albicans, 20 isolates, RPMI pH 7.0, 48 hr, Ktz read at score 2, others at score 0
Procedure: as §1, §2, §3, §4, §5, §6

Candida kefyr [3] = test: Broth microdilution MIC; format: cell-based; conditions: Table 1 (MICs), 1 isolate, 48 hr
Procedure: as §1, §2, §3, §4, §5, §6

Candida krusei [4] = test: Broth microdilution MIC; format: cell-based; conditions: Table 1 (MICs), 2 isolates, 48 hr
Procedure: as §1, §2, §3, §4, §5, §6

Candida lusitaniae [5] = test: Broth microdilution MIC; format: cell-based; conditions: Table 1 (MICs), 2 isolates, 48 hr
Procedure: as §1, §2, §3, §4, §5, §6

Candida parapsilosis [6] = test: Broth microdilution MIC; format: cell-based; conditions: Table 1 (MICs), 2 isolates, 48 hr
Procedure: as §1, §2, §3, §4, §5, §6

Candida rugosa [7] = test: Broth microdilution MIC; format: cell-based; conditions: Table 1 (MICs); Candida rugosa, 2 isolates; 48 hr
Procedure: as §1, §2, §3, §4, §5, §6

Candida tropicalis [8] = test: Broth microdilution MIC; format: cell-based; conditions: Table 1 (MICs); Candida tropicalis, 2 isolates; 48 hr
Procedure: as §1, §2, §3, §4, §5, §6

Cryptococcus neoformans [9] = test: Broth microdilution MIC; format: cell-based; conditions: Table 1 (MICs); Cryptococcus neoformans, 14 isolates; 72 hr
Procedure: as §1, §2, §3, §4, §5, §6

Microsporum spp. [10] = test: Broth microdilution MIC; format: cell-based; conditions: Table 1 (MICs), 2 isolates, 7 days
Procedure: as §1, §2, §3, §4, §5, §6

Saccharomyces cerevisiae [11] = test: Broth microdilution MIC; format: cell-based; conditions: Table 1 (MICs), 1 strain tested more than once (control ATCC 36375), 48 hr
Procedure: as §1, §2, §3, §4, §5, §6

Trichophyton spp. [12] = test: Broth microdilution MIC; format: cell-based; conditions: Table 1 (MICs), 3 isolates, 7 days
Procedure: as §1, §2, §3, §4, §5, §6

Aspergillus fumigatus [13] = test: Minimum Fungicidal Concentration (MFC); format: cell-based; conditions: Table 2, 16 isolates, 48 hr
Procedure: as §1, §2, §3, §4, §5, §6

Candida albicans [14] = test: Minimum Fungicidal Concentration (MFC); format: cell-based; conditions: Table 2, 20 isolates, subculture on drug-free SDA 24 hr
Procedure: as §1, §2, §3, §4, §5, §6

Candida kefyr [15] = test: Minimum Fungicidal Concentration (MFC); format: cell-based; conditions: Table 2, 1 isolate, 24 hr
Procedure: as §1, §2, §3, §4, §5, §6

Candida krusei [16] = test: Minimum Fungicidal Concentration (MFC); format: cell-based; conditions: Table 2, 2 isolates, 24 hr
Procedure: as §1, §2, §3, §4, §5, §6

Candida lusitaniae [17] = test: Minimum Fungicidal Concentration (MFC); format: cell-based; conditions: Table 2, 2 isolates, 24 hr
Procedure: as §1, §2, §3, §4, §5, §6

Candida parapsilosis [18] = test: Minimum Fungicidal Concentration (MFC); format: cell-based; conditions: Table 2, 2 isolates, 24 hr
Procedure: as §1, §2, §3, §4, §5, §6

Candida tropicalis [19] = test: Minimum Fungicidal Concentration (MFC); format: cell-based; conditions: Table 2, 2 isolates, 24 hr
Procedure: as §1, §2, §3, §4, §5, §6

Cryptococcus neoformans [20] = test: Minimum Fungicidal Concentration (MFC); format: cell-based; conditions: Table 2, 14 isolates, 48 hr
Procedure: as §1, §2, §3, §4, §5, §6

Microsporum spp. [21] = test: Minimum Fungicidal Concentration (MFC); format: cell-based; conditions: Table 2, 2 isolates, 7 d
Procedure: as §1, §2, §3, §4, §5, §6

Saccharomyces cerevisiae [22] = test: Minimum Fungicidal Concentration (MFC); format: cell-based; conditions: Table 2, 1 strain tested more than once, 24 hr
Procedure: as §1, §2, §3, §4, §5, §6

Trichophyton spp. [23] = test: Minimum Fungicidal Concentration (MFC); format: cell-based; conditions: Table 2, 3 isolates, 7 d
Procedure: as §1, §2, §3, §4, §5, §6

Candida rugosa [24] = test: Minimum Fungicidal Concentration (MFC); format: cell-based; conditions: Table 2, 2 isolates, 24 hr
Procedure: as §1, §2, §3, §4, §5, §6

fungal isolates = test: Fungicidal activity (MFC), fungal isolates overall; format: cell-based, fungi; conditions: Table 2 organisms
Procedure: as §1, §2
Preparation of Inoculum Suspensions: On Sabouraud dextose agar (SDA; BBL, Becton and Dickinson and Co., Cockeysville, Md.) all isolates were subcultured at least twice before use to ensure purity and viability. […] The turbidity of each mixed suspension was measured at 530 nm and adjusted to 1×10^6 to 5×10^6 CFU/ml by the NCCLS spectrophotometric method described by National Committee for Clinical Laboratory Standards. […]
Aspergillus fumigatus and Mucor spp. were grown for 1 wk at 35° C. […] The stock suspensions of all filamentous fungi were measured at 530 nm and adjusted to 85-87% transmission. The concentration (1×10^6 to 5×10^6 CFU/ml) was determined by hemacytometer count or plate count on SDA. […]

SMILES	MIC range (Candida albicans [2]) [µg/mL]	MIC (μg/ml) range (Candida kefyr [3]) [µg/mL]	MIC (μg/ml) range (Candida krusei [4]) [µg/mL]	MIC range (Candida lusitaniae [5]) [µg/mL]	MIC range (Candida parapsilosis [6]) [µg/mL]	MIC range (Candida rugosa [7]) [µg/mL]	MIC (μg/ml) range (Candida tropicalis [8]) [µg/mL]	MIC range (Cryptococcus neoformans [9]) [µg/mL]	MIC range (Microsporum spp. [10]) [µg/mL]	MFC (μg/ml) range (Saccharomyces cerevisiae [11]) [µg/mL]	MIC range (Trichophyton spp. [12]) [µg/mL]	MFC (μg/ml) range (Candida kefyr [15]) [µg/mL]	MFC (μg/ml) range (Candida krusei [16]) [µg/mL]	MFC (μg/ml) range (Candida lusitaniae [17]) [µg/mL]	MFC (μg/ml) range (Candida parapsilosis [18]) [µg/mL]	MFC (μg/ml) range (Candida tropicalis [19]) [µg/mL]	MFC (μg/ml) range (Saccharomyces cerevisiae [22]) [µg/mL]	further results
C/C=C1\NC(=O)C(C(C)O)NC(=O)C(CCCN)NC(=O)C(CCO)NC(=O)C(CCN)NC(=O)C(CCN)NC(=O)C(NC(=O)CC(O)CCCCCCCCCCC)COC(=O)C(C(O)CCl)NC(=O)C(C(O)C(=O)O)NC1=O (stereo not shown) [SS-A, syringostatin-A] (X2-S[Dab][Dab][hSer][Orn]T[Dhb][ξAsp(3ξ-OH)][X3]; ester 1-C; configuration not given here)	2.5 to 5	2.5 (≈ 2.12 µM)	10 (≈ 8.48 µM)	5 (≈ 4.24 µM)	2.5 to 5	10 to 20	2.5 to 5	2.5 to 10	2.5 to 5	2.5 (≈ 2.12 µM)	2.5 to 5	2.5 (≈ 2.12 µM)	10 to 20	5 (≈ 4.24 µM)	2.5 to 10	5 (≈ 4.24 µM)	5 (≈ 4.24 µM)	MIC range (Aspergillus fumigatus [1]): 5 to 40 µg/mL; MFC (μg/ml) range (Aspergillus fumigatus [13]): 5 to 40 µg/mL; MFC (μg/ml) range (Candida albicans [14]): 2.5 to 10 µg/mL; MFC (μg/ml) range (Cryptococcus neoformans [20]): 2.5 to 10 µg/mL; MFC (μg/ml) range (Microsporum spp. [21]): 5 µg/mL (≈ 4.24 µM); MFC (μg/ml) range (Trichophyton spp. [23]): 5 µg/mL (≈ 4.24 µM)
CC(=O)N1CCN(c2ccc(OCC3COC(Cn4ccnc4)(c4ccc(Cl)cc4Cl)O3)cc2)CC1 (stereo not shown) [Ktz, ketoconazole, reference compound]	0.02 to 10	0.02 (≈ 0.0376 µM)	0.15 (≈ 0.282 µM)	0.02 (≈ 0.0376 µM)	0.02 (≈ 0.0376 µM)	0.02 (≈ 0.0376 µM)	0.08 to 0.6	0.04 to 0.6	0.8 to 1.6	0.15 (≈ 0.282 µM)	0.4 to 3.1	1.25 (≈ 2.35 µM)	0.15 (≈ 0.282 µM)	≤ 0.02	0.04 (≈ 0.0753 µM)	2.5 to 10	0.6 to 1.25	MIC, one strain of C. albicans (Candida albicans [2]; one strain of C. albicans resistant to ketoconazole): 10 µg/mL; MFC (μg/ml) range (Candida rugosa [24]): ≤0.02 to 0.08 µg/mL; fungicidal activity (fungal isolates): fungicidal activity only against C. krusei
